{"source": "patent US4997834A", "about": "“Trans-4-amino(alkyl)-1-pyridylcarbamoylcyclohexane compounds and pharmaceutical use thereof” (priority 1988, dated 1991)", "key": {"[1]": {"system": "spontaneously hypertensive rats", "experiment": "Antihypertensive effect: systolic blood pressure by tail cuff method in spontaneously hypertensive rats", "format": "in vivo, male spontaneously hypertensive rats", "details": "30 mg/kg orally, measured three hours after administration", "experimental": "PHARMACOLOGICAL EXPERIMENT 1: ANTIHYPERTENSIVE EFFECT\nEach of 30 mg/kg of test compounds dissolving in 0.5% of hydroxypropyl-methylcellurose was orally administered to groups of 3 to 5 male spontaneously hypertensive rats weighing 350-450 g. Three hours after the administration, the systolic blood pressure was measured by tail cuff method and antihypertensive effects are examined."}, "left coronary artery": {"system": "left coronary artery", "experiment": "Effect on coronary blood flow (perfused left coronary artery, anesthetized dogs)", "format": "in vivo, adult mongrel dogs", "details": "pentobarbital-anesthetized; for Effect of coronary blood flow, ED50 (in artery): dose increasing coronary blood flow by half of the effect of 3 μg intracoronary nifedipine, test dose 10-300 μg into coronary artery; for Effect of coronary blood flow, T1/2 (duration of effects): injection into coronary artery, 10-300 μg", "experimental": "PHARMACOLOGICAL EXPERIMENT 2: EFFECT ON CORONARY BLOOD FLOW\nGroups of 2 to 3 adult mongrel dogs were anesthetized with the intraveneous administration of 30 mg/kg of body weight of sodium pentobarbital.\nAccording to the method of Yago et. al. described in Folia Pharmacologica Japonica, vol. 57, p.380 (1961), the left coronary artery was perfused and its blood flow volume was measured. Test compound was injected into the coronary artery at a […] of 10-300 μg. The effects of test compound on coronary blood flow were expressed as ED50 (μg), a dose required to increase the coronary blood flow by a half of the effects of the coronary-artery injection of 3 μg of nifedipine [Dimethyl 2,6-dimethyl-4-(2-nitrophenyl)-1,4-dihydropyridine-3,5-dicarboxylate]. Each of half-life (T 1/2, minute) was measured as the duration of effects."}, "right vertebral artery": {"system": "right vertebral artery", "experiment": "Effect on vertebral blood flow (perfused right vertebral artery, anesthetized dogs)", "format": "in vivo, adult mongrel dogs", "details": "doses 10-100 μg (A); for Effect of vertebral blood flow, ED100: dose giving 100% of the maximum blood flow increase by 100 μg papaverine hydrochloride, 30-100 μg (B, C) into vertebral artery; for Effect of vertebral blood flow, T1/2 (duration of the effects): injection into vertebral artery, 30-100 μg (B, C)", "experimental": "PHARMACOLOGICAL EXPERIMENT 3: EFFECT ON VERTEBRAL BLOOD FLOW\nGroups of two adult mongrel dogs were anesthetized with the intraveneous administration of 25 mg/kg of body weight of sodium pentobarbital.\nThe right vertebral artery was perfused and the blood flow volume was measured. Test compound was injected in the vertebral artery. The percentage of maximum increase of blood flow by the injection of 100 μg of papaverine hydrochloride (1-[(3,4-dimethoxyphenyl)methyl]-6,7-dimethoxyisoquinoline hydrochloride) in vertebral artery was taken as 100% . The effects of test compound on vertebral artery were expressed as ED100 (μg), a dose required to obtain 100% of the increase of blood flow. Each of half-life (T 1/2, minute) was measured as the duration of the effects."}, "ddY strain mice": {"system": "ddY strain mice", "experiment": "Acute toxicity, intraperitoneal, mice", "format": "in vivo", "text": "EXPERIMENT OF ACUTE TOXICITY\nEach of test compounds of A, B and C was intraperitoneally administered to ddY strain mice."}, "[2]": {"details": "intraperitoneal dose of 100 mg/kg, five days after administration"}}, "data": [{"compound": "C[C@H]1C[C@H](CN)CC[C@H]1C(=O)Nc1ccncc1", "note": "(relative stereo) [Test Compound B, Trans-4-aminomethyl-cis-2-methyl-1-(4-pyridylcarbamoyl)cyclohexane]", "values": [{"measurement": "Maximum lowering value of systolic blood pressure", "setting": "[1]", "value": -44, "unit": "mmHg"}, {"measurement": "Effect of coronary blood flow, ED50 (in artery)", "setting": "left coronary artery", "value": 35, "unit": "µg"}, {"measurement": "Effect of coronary blood flow, T1/2 (duration of effects)", "setting": "left coronary artery", "value": 4.0, "unit": "min"}, {"measurement": "Effect of vertebral blood flow, ED100", "setting": "right vertebral artery", "value": 74, "unit": "µg"}, {"measurement": "Effect of vertebral blood flow, T1/2 (duration of the effects)", "setting": "right vertebral artery", "value": 4.4, "unit": "min"}, {"measurement": "Survival of mice", "setting": "ddY strain mice; [2]", "value": "All mice survived"}]}, {"compound": "CC(N)[C@H]1CC[C@H](C(=O)Nc2ccncc2)CC1", "note": "(relative stereo) [Test Compound C, Trans-4-(1-aminoethyl)-1-(4-pyridylcarbamoyl)cyclohexane]", "values": [{"measurement": "Maximum lowering value of systolic blood pressure", "setting": "[1]", "value": -52, "unit": "mmHg"}, {"measurement": "Effect of coronary blood flow, ED50 (in artery)", "setting": "left coronary artery", "value": 34, "unit": "µg"}, {"measurement": "Effect of coronary blood flow, T1/2 (duration of effects)", "setting": "left coronary artery", "value": 3.0, "unit": "min"}, {"measurement": "Effect of vertebral blood flow, ED100", "setting": "right vertebral artery", "value": 58, "unit": "µg"}, {"measurement": "Effect of vertebral blood flow, T1/2 (duration of the effects)", "setting": "right vertebral artery", "value": 3.0, "unit": "min"}, {"measurement": "Survival of mice", "setting": "ddY strain mice; mouse, in vivo, ip, 100 mg/kg", "value": "All mice survived"}]}, {"compound": "NC[C@H]1CC[C@H](C(=O)Nc2ccncc2)CC1", "note": "[Test Compound A, Trans-4-aminomethyl-1-(4-pyridylcarbamoyl)cyclohexane]", "values": [{"measurement": "Effect of coronary blood flow, ED50 (in artery)", "setting": "left coronary artery", "value": 56, "unit": "µg"}, {"measurement": "Effect of coronary blood flow, T1/2 (duration of effects)", "setting": "left coronary artery", "value": 1.7, "unit": "min"}, {"measurement": "Effect of vertebral blood flow, ED100", "setting": "right vertebral artery", "value": 35, "unit": "µg"}, {"measurement": "Effect of vertebral blood flow, T1/2 (duration of the effects)", "setting": "right vertebral artery", "value": 2.1, "unit": "min"}, {"measurement": "Survival of mice", "setting": "ddY strain mice; [2]", "value": "All mice survived"}]}]}
